Test results published in ChEMBL document CHEMBL5113410, “Novel flavonoid hybrids as potent antiviral agents against hepatitis A: Design, synthesis and biological evaluation” (Eur J Med Chem, 2022).
Activity calls are given as the source filed them. The rule behind the calls is not given here.

What was measured:
Huh7.5.1 = test: Cytotoxicity in human Huh-7.5.1 cells assessed as reduction in cell viability at 10 uM incubated for 72 hrs by CellTiter-Glo luminescent cell viability assay; format: toxicity, cell-based; details: huh7.5.1, 72 h
Hepatovirus A [1] = test: Antiviral activity against hepatitis A virus infected in human Huh-7.5.1 cells assessed as reduction in viral RNA replication at 2 to 50 uM incubated for 72 hrs by luciferase reporter dependent subgenomic replicon assay; format: functional; details: dose 2-50 µM
Hepatovirus A [2] = test: Antiviral activity against hepatitis A virus genotype 1b infected in human Huh-7.5.1 cells assessed as reduction in virus production at 10 uM incubated for 72 hrs after 6 hrs HAV/NLuc infection by Nano-Glo luciferase assay; format: functional, organism-based
Hepatovirus A [3] = test: Antiviral activity against hepatitis A virus KRM031 infected in human Huh-7.5.1 cells assessed as reduction in cytoplasmic viral RNA level at 5 to 20 uM incubated for 72 hrs dosed after infection for 6 hrs by RT-qPCR method; format: functional, organism-based; details: KRM031, Huh-7.5.1
Hepatovirus A [4] = test: Antiviral activity against hepatitis A virus TICM005 infected in human Huh-7.5.1 cells assessed as reduction in cytoplasmic viral RNA level at 5 to 20 uM incubated for 72 hrs dosed after infection for 6 hrs by RT-qPCR method; format: functional, organism-based; details: TICM005, Huh-7.5.1
Hepatovirus A [5] = test: Antiviral activity against hepatitis A virus HM175/18f infected in human Huh-7.5.1 cells assessed as reduction in HM175 production at 2 to 50 uM incubated for 72 hrs by RT-qPCR method; format: functional, organism-based; details: dose 2-50 µM, DDE = dose-dependent effect
[6] = Selectivity index, ratio of CC50 for Cytotoxicity in human Huh-7.5.1 cells to EC50 for Antiviral activity against hepatitis A virus genotype 1b infected in human Huh-7.5.1 cells; format: toxicity, cell-based; details: read-out: Ratio CC50/EC50
Hepatovirus A [7] = test: Antiviral activity against hepatitis A virus HM175 infected in human Huh-7.5.1 cells assessed as reduction in HAV2c Protein expression at 10 uM incubated for 48 hrs by immunofluorescence assay; format: functional, organism-based
[8] = Cytotoxicity in human Huh-7.5.1 cells assessed as reduction in cell viability incubated for 72 hrs by CellTiter-Glo luminescent cell viability assay; format: toxicity, cell-based, Huh7.5.1
Hepatovirus A [9] = test: Antiviral activity against hepatitis A virus genotype 1b infected in human Huh-7.5.1 cells assessed as reduction in virus production at 10 uM incubated for 72 hrs by Nano-Glo luciferase assay; format: functional, organism-based
Hepatovirus A [10] = test: Antiviral activity against hepatitis A virus genotype 1b infected in human Huh-7.5.1 cells assessed as reduction in virus production incubated for 72 hrs by Nano-Glo luciferase assay; format: functional, organism-based; details: for Activity: DDE = dose-dependent effect; for EC50: Huh-7.5.1, 72 h

Row | Compound | Activity (Huh7.5.1) | inhibition (INH) (Hepatovirus A [1]) [%] | inhibition (Hepatovirus A [2]) | EC50 (Hepatovirus A [3]) [µM] | EC50 (Hepatovirus A [4]) [µM] | inhibition (Hepatovirus A [5]) | selectivity ratio [6] | Activity (Hepatovirus A [7]) | CC50 at 72 h [8] [µM] | Activity (Hepatovirus A [9]) | Activity (Hepatovirus A [10]) | EC50 (Hepatovirus A [10]) [µM]
1 | COc1cc(OCC(=O)N/N=C/c2ccc(Br)cc2)cc2c1CCC(c1cc(OC)c(OC)c(OC)c1)O2 (stereo unspecified) | Non-Toxic | 93 | Active | > 20 | > 20 | Dde | 25 | Active | 152 | Active | Dde | 6.1
2 | COc1cc(OCC(=O)N/N=C/c2ccc(Cl)s2)cc2c1CCC(c1cc(OC)c(OC)c(OC)c1)O2 (stereo unspecified) | Non-Toxic | 98.1 | Active | 8.5 | 11.7 | Dde | 15.7 | Active | 83.3 | Active | Dde | 5.3
3 | COc1cc(OCC(=O)N/N=C/c2ccc(C)cc2)cc2c1CCC(c1cc(OC)c(OC)c(OC)c1)O2 (stereo unspecified) | Non-Toxic | 56.4 | Active | > 20 | > 20 | Dde | 11.1 | Active | 103 | Active | Dde | 9.3
4 | COc1cc(OCC(=O)N/N=C/c2ccc(Cl)c(O)c2)cc2c1CCC(c1cc(OC)c(OC)c(OC)c1)O2 (stereo unspecified) | Toxic |  |  |  |  |  |  |  |  | Active |  | 
5 | COc1cc(OCC(=O)N/N=C(\C)c2ccccc2O)cc2c1CCC(c1cc(OC)c(OC)c(OC)c1)O2 (stereo unspecified) | Toxic |  |  |  |  |  |  |  |  | Active |  | 
6 | COc1cc(OCC(=O)N/N=C/c2ccc(Cl)c(Cl)c2)cc2c1CCC(c1cc(OC)c(OC)c(OC)c1)O2 (stereo unspecified) | Toxic |  |  |  |  |  |  |  |  | Active |  | 
7 | COc1ccc(/C=N/NC(=O)COc2cc(OC)c3c(c2)OC(c2cc(OC)c(OC)c(OC)c2)CC3)cc1 (stereo unspecified) | Toxic |  |  |  |  |  |  |  |  | Active |  | 
8 | COc1cc(OCC(=O)N/N=C/c2ccc(Cl)cc2)cc2c1CCC(c1cc(OC)c(OC)c(OC)c1)O2 (stereo unspecified) | Non-Toxic | 98.3 | Active | 13.1 | 14.2 | Dde | 16.3 | Active | 89.8 | Active | Dde | 5.5
